Experimental findings from patent US9428456B2, “1-[m-carboxamido(hetero)aryl-methyl]-heterocyclyl-carboxamide derivatives” (Actelion Pharmaceuticals Ltd., priority 2012, dated 2016) are described below.

Sequence of CXCR7 (P25106 whole entry, the tested form may be a part): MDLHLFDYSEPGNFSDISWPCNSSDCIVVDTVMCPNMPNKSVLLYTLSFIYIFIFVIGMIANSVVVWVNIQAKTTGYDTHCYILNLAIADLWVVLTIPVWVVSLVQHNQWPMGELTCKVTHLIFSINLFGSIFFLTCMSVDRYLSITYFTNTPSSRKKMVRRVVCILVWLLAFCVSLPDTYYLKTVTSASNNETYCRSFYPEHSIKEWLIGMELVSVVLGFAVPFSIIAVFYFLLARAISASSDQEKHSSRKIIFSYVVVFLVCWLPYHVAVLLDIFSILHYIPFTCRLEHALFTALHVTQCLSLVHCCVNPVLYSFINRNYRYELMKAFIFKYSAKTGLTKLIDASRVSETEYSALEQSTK
Sequence of CXCR7 (P32121 whole entry partner, the tested form may be a part): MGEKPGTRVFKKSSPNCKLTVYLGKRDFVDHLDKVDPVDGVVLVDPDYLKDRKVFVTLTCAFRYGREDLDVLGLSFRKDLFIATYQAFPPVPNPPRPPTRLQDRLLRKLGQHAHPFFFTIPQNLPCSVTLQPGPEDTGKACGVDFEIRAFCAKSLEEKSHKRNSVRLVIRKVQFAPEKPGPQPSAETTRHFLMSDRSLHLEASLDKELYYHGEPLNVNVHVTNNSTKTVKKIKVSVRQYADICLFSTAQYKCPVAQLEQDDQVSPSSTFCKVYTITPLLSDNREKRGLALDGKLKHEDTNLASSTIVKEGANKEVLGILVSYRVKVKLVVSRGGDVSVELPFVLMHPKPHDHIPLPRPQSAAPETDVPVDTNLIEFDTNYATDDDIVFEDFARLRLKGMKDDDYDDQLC

For the experiment, the target named is CXCR7 (Homo sapiens (Human), UniProt P25106). In words: PathHunter CHO-K1 CXCR7 b-arrestin assay (agonistic activity). It is filed as cell-based. The settings on record: PathHunter CHO-K1 CXCR7 b-arrestin cell line. Put shortly:
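CHO-K1 cells co-expressing ProLink-tagged CXCR7 and EA-fused β-arrestin 2 (enzyme fragment complementation); compounds added in HBSS/20 mM HEPES/0.2% BSA after 3–4 h in OPTIMEM, 90 min at 37 °C. Chemiluminescent β-gal signal read after 1 h detection at room temperature; EC50 reported as geometric mean of several measurements.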
Turning to `CC(C)(C)NC(=O)C1CCN(Cc2cccc(NC(=O)Cc3c(F)ccc(Cl)c3Cl)c2)CC1` [Example 1.253], the EC50 (commonly the concentration needed to bring the measured effect to its halfway point) came to 4 nM.

With `CC(C)(C)NC(=O)C1CCN(Cc2cccc(NC(=O)Cc3c(F)ccc(F)c3Cl)c2)CC1` [Example 1.254], the EC50 is 2 nM.

Take `CC(C)(C)NC(=O)C1CCN(Cc2cccc(NC(=O)CC3CCOCC3)c2)CC1` [Example 1.255]: the response was half-maximal at 137 nM (EC50).

For `CC(C)(C)NC(=O)C1CCN(Cc2cccc(NC(=O)Cc3ccccc3Cl)c2)CC1` [Example 1.258], a half-maximal response (EC50) required 1 nM.

As to `CC(C)(C)NC(=O)C1CCN(Cc2cccc(NC(=O)Cc3ccccc3)c2)CC1` [Example 1.259], the EC50 turned out to be 4 nM.

`CC(C)(C)NC(=O)C1CCN(Cc2cccc(NC(=O)C3C(C)(C)C3(C)C)c2)CC1` [Example 1.260]: the response was half-maximal at 0.9 nM (EC50).

`Cc1nc(CC(=O)Nc2cccc(CN3CCC(C(=O)NC(C)(C)C)CC3)c2)c(C)s1` [Example 1.261] registered an EC50 of 2 nM.

Compound `Cc1nc(C)c(CC(=O)Nc2cccc(CN3CCC(C(=O)NC(C)(C)C)CC3)c2)s1` [Example 1.262] came in with an EC50 of 120 nM.

`CC(C)(C)NC(=O)C1CCN(Cc2cccc(NC(=O)Cc3cnccn3)c2)CC1` [Example 1.263] came in with an EC50 of 143 nM.

Turning to `CC(C)(C)NC(=O)C1CCN(Cc2cccc(NC(=O)Cc3ncccn3)c2)CC1` [Example 1.264], the midpoint of the response, the EC50, lay at 90 nM.

In turn, `CC(C)(C)NC(=O)C1CCN(Cc2cccc(NC(=O)C3(c4ccc(Cl)cc4Cl)CC3)c2)CC1` [Example 1.268] had an EC50 of 2 nM.

The compound `CC(C)(C)NC(=O)C1CCN(Cc2cccc(NC(=O)CC3Cc4ccccc4C3)c2)CC1` [Example 1.272] registered an EC50 of 2 nM.

`CC(C)CN(C)C(=O)C1CCN(Cc2cccc(NC(=O)c3ccc(F)cc3)c2)CC1` [Example 1.273] displayed an EC50 of 2 nM.

The compound `CC(C)CN(C)C(=O)C1CCN(Cc2cccc(NC(=O)c3cccc(C(F)(F)F)n3)c2)CC1` [Example 1.274] returned an EC50 of 9 nM.

Take `CC(C)CN(C)C(=O)C1CCN(Cc2cccc(NC(=O)c3ccc(C(F)(F)F)cn3)c2)CC1` [Example 1.275]: the EC50 amounted to 3 nM.

`CC(C)CN(C)C(=O)C1CCN(Cc2cccc(NC(=O)c3cncc(C(F)(F)F)c3)c2)CC1` [Example 1.276] registered an EC50 of 6 nM.

Compound `CC(C)CN(C)C(=O)C1CCN(Cc2cccc(NC(=O)c3cncc(F)c3)c2)CC1` [Example 1.277] showed an EC50 of 18 nM.

In turn, `CC(C)CN(C)C(=O)C1CCN(Cc2cccc(NC(=O)c3cncc(Cl)c3)c2)CC1` [Example 1.278] had an EC50 of 6 nM.

For the compound `CC(C)(C)NC(=O)C1CCN(Cc2cc(Br)cc(NC(=O)c3cccc(C(F)(F)F)n3)c2)CC1` [Example 1.279], the EC50 is 420 nM.

For the compound `COc1cc(CN2CCC(C(=O)NC(C)(C)C)CC2)cc(NC(=O)c2ccc(F)cc2)c1` [Example 1.280], the EC50 was 409 nM.

`Cc1ccc(C(=O)Nc2cccc(CN3CCC(C(=O)NC4CCCCC4)CC3)c2)s1` [Example 1.281] returned an EC50 of 3 nM.

As to `O=C(Nc1cccc(CN2CCC(C(=O)NC3CCCCC3)CC2)c1)c1ccc(Cl)s1` [Example 1.282], it took 5 nM to reach a half-maximal effect (EC50).

Compound `CC(C)(C)c1ccc(C(=O)Nc2cccc(CN3CCC(C(=O)NC4CCCCC4)CC3)c2)s1` [Example 1.283] registered an EC50 of 34 nM.

Regarding `O=C(Nc1ccnc(CN2CCC(C(=O)NC3CCCCC3)CC2)n1)c1cccc(C(F)(F)F)n1` [Example 1.284], the EC50 was 223 nM.

Consider `Cc1cncc(C(=O)Nc2ccnc(CN3CCC(C(=O)NC4CCCCC4)CC3)n2)c1` [Example 1.285], for which a half-maximal response (EC50) required 199 nM.

Compound `CC(C)(C)NC(=O)C1CCN(Cc2nccc(NC(=O)c3cccc(C(F)(F)F)n3)n2)CC1` [Example 1.286] came in with an EC50 of 265 nM.

`O=C(Nc1nc(CN2CCC(C(=O)NC3CCCC3)CC2)cs1)c1ccc(Cl)cc1` [Example 1.293] gave an EC50 of 81 nM.

As to `Cc1cncc(C(=O)Nc2nc(CN3CCC(C(=O)NC4CCCC4)CC3)cs2)c1` [Example 1.294], a half-maximal response (EC50) required 408 nM.

`COc1ccc(NC(=O)c2cccc(C(F)(F)F)n2)cc1CN1CCC(C(=O)NC(C)(C)C)CC1` [Example 1.296] yielded an EC50 of 6 nM.

Turning to `COc1ccc(NC(=O)c2cncc(C)c2)cc1CN1CCC(C(=O)NC(C)(C)C)CC1` [Example 1.297], the EC50 came to 98 nM.

For the compound `COc1ccc(NC(=O)c2ccc(F)cc2)cc1CN1CCC(C(=O)NC(C)(C)C)CC1` [Example 1.298], the concentration for a half-maximal effect (EC50) turned out to be 19 nM.

On to `Cc1cncc(C(=O)Nc2ccc(C)c(CN3CCC(C(=O)NC(C)(C)C)CC3)c2)c1` [Example 1.299], for which the response was half-maximal at 3 nM (EC50).

The compound `Cc1ccc(NC(=O)c2ccc(F)cc2)cc1CN1CCC(C(=O)NC(C)(C)C)CC1` [Example 1.300] had an EC50 of 1 nM.

With `Cc1ccc(CN2CCC(C(=O)NC(C)(C)C)CC2)cc1NC(=O)c1cccc(C(F)(F)F)n1` [Example 1.301], the midpoint of the response, the EC50, lay at 2 nM.

With `Cc1cncc(C(=O)Nc2cc(CN3CCC(C(=O)NC(C)(C)C)CC3)ccc2C)c1` [Example 1.302], the midpoint of the response, the EC50, lay at 6 nM.

`Cc1ccc(CN2CCC(C(=O)NC(C)(C)C)CC2)cc1NC(=O)c1ccc(F)cc1` [Example 1.303] displayed an EC50 of 3 nM.

Turning to `COc1ccc(CN2CCC(C(=O)NC(C)(C)C)CC2)cc1NC(=O)c1cccc(C(F)(F)F)n1` [Example 1.304], the midpoint of the response, the EC50, lay at 4 nM.

Compound `COc1ccc(CN2CCC(C(=O)NC(C)(C)C)CC2)cc1NC(=O)c1cncc(C)c1` [Example 1.305] registered an EC50 of 7 nM.

Turning to `COc1ccc(CN2CCC(C(=O)NC(C)(C)C)CC2)cc1NC(=O)c1ccc(F)cc1` [Example 1.306], the EC50 was found to be 4 nM.

`CC(C)(C)NC(=O)C1CCN(Cc2cccc(NC(=O)C3(c4ccccc4)CC3)c2)CC1` [Example 1.309] registered an EC50 of 1 nM.

`CC(C)(C)NC(=O)C1CCN(Cc2cccc(NC(=O)C3(c4ccc(Cl)cc4)CC3)c2)CC1` [Example 1.310] yielded an EC50 of 2 nM.

`CC(C)(C)NC(=O)C1CCN(Cc2cccc(NC(=O)C(C)(C)c3ccccc3)c2)CC1` [Example 1.311] registered a concentration for a half-maximal effect (EC50) of 1 nM.

For the compound `CC(C(=O)Nc1cccc(CN2CCC(C(=O)NC(C)(C)C)CC2)c1)c1ccc(Cl)cc1` (stereo not drawn) [Example 1.312], the EC50 amounted to 8 nM.

As to `Cc1c(CN2CCC(C(=O)NC(C)(C)C)CC2)cccc1NC(=O)c1ccc(F)cc1` [Example 1.313], the response was half-maximal at 19 nM (EC50).

In the case of `Cc1cncc(C(=O)Nc2cccc(CN3CCC(C(=O)NC(C)(C)C)CC3)c2C)c1` [Example 1.314], the EC50 was determined as 145 nM.

On to `Cc1c(CN2CCC(C(=O)NC(C)(C)C)CC2)cccc1NC(=O)c1cccc(C(F)(F)F)n1` [Example 1.315], for which the EC50 worked out at 193 nM.

As for `Cc1cc(CN2CCC(C(=O)NC(C)(C)C)CC2)cc(NC(=O)c2cccc(C(F)(F)F)n2)c1` [Example 1.316], the EC50 is 36 nM.

Compound `Cc1cc(CN2CCC(C(=O)NC(C)(C)C)CC2)cc(NC(=O)c2cncc(C)c2)c1` [Example 1.317] had an EC50 of 76 nM.

`Cc1cc(CN2CCC(C(=O)NC(C)(C)C)CC2)cc(NC(=O)c2ccc(F)cc2)c1` [Example 1.318]: the EC50 was found to be 13 nM.

For `COc1c(CN2CCC(C(=O)NC(C)(C)C)CC2)cccc1NC(=O)c1cccc(C(F)(F)F)n1` [Example 1.319], the EC50 was 45 nM.

In the case of `COc1c(CN2CCC(C(=O)NC(C)(C)C)CC2)cccc1NC(=O)c1cncc(C)c1` [Example 1.320], the EC50 was 48 nM.

Consider `COc1c(CN2CCC(C(=O)NC(C)(C)C)CC2)cccc1NC(=O)c1ccc(F)cc1` [Example 1.321], for which the EC50 was found to be 6 nM.

Turning to `CC(C)(C)NC(=O)C1CCN(Cc2cccc(NC(=O)c3cccnn3)c2)CC1` [Example 1.322], the EC50 worked out at 4 nM.

The compound `CC(C)(C)NC(=O)C1CCN(Cc2cccc(NC(=O)c3ccnnc3)c2)CC1` [Example 1.323] gave an EC50 of 66 nM.

On to `Cc1cc(C(=O)Nc2cccc(CN3CCC(C(=O)NC(C)(C)C)CC3)c2)c(Cl)nn1` [Example 1.324], for which the midpoint of the response, the EC50, lay at 51 nM.

Compound `COc1cc(CN2CCC(C(=O)NC(C)(C)C)CC2)cc(NC(=O)c2cccc(C(F)(F)F)n2)c1` [Example 1.325] yielded an EC50 of 262 nM.

Take `CCc1ccc(CN2CCC(C(=O)NC(C)(C)C)CC2)cc1NC(=O)c1cccc(C(F)(F)F)n1` [Example 1.326]: a half-maximal response (EC50) required 2 nM.

The compound `CCc1ccc(CN2CCC(C(=O)NC(C)(C)C)CC2)cc1NC(=O)c1cncc(C)c1` [Example 1.327] gave a 50% effective concentration (EC50) of 28 nM.

In turn, `CCc1ccc(CN2CCC(C(=O)NC(C)(C)C)CC2)cc1NC(=O)c1ccc(F)cc1` [Example 1.328] yielded an EC50 of 8 nM.

Consider `CCc1cc(CN2CCC(C(=O)NC(C)(C)C)CC2)cc(NC(=O)c2cccc(C(F)(F)F)n2)c1` [Example 1.329], for which the EC50 was 159 nM.

For the compound `CCc1cc(CN2CCC(C(=O)NC(C)(C)C)CC2)cc(NC(=O)c2cncc(C)c2)c1` [Example 1.330], the EC50 stood at 285 nM.

The compound `CCc1cc(CN2CCC(C(=O)NC(C)(C)C)CC2)cc(NC(=O)c2ccc(F)cc2)c1` [Example 1.331] displayed an EC50 of 62 nM.

In the case of `CCc1ccc(NC(=O)c2cccc(C(F)(F)F)n2)cc1CN1CCC(C(=O)NC(C)(C)C)CC1` [Example 1.332], it took 16 nM to reach a half-maximal effect (EC50).

Take `CCc1ccc(NC(=O)c2cncc(C)c2)cc1CN1CCC(C(=O)NC(C)(C)C)CC1` [Example 1.333]: the EC50 was 57 nM.

`CCc1ccc(NC(=O)c2ccc(F)cc2)cc1CN1CCC(C(=O)NC(C)(C)C)CC1` [Example 1.334] yielded an EC50 of 17 nM.

For the compound `C/C=C/C(=O)Nc1cccc(CN2CCC(C(=O)NC(C)(C)C)CC2)c1` [Example 1.335], the EC50 is 21 nM.

As to `C=CC(=O)Nc1cccc(CN2CCC(C(=O)NC(C)(C)C)CC2)c1` [Example 1.336], it took 83 nM to reach a half-maximal effect (EC50).

As for `CC(C)(C)NC(=O)C1CCN(Cc2cccc(NC(=O)/C=C/c3ccccc3)c2)CC1` [Example 1.337], the midpoint of the response, the EC50, lay at 8 nM.

Consider `CCC(C)(C)NC(=O)C1CCN(Cc2cccc(NC(=O)c3ccc(Cl)cn3)c2)CC1` [Example 1.338], for which the EC50 was found to be 0.8 nM.
